According to patent publication US20240391923A1, “METHIONINE ADENOSYLTRANSFERASE 2A INHIBITOR FOR TREATING MTAP DELETION-TYPE CANCER” (SUZHOU GENHOUSE BIO CO., LTD., priority 2022, published 2024):
pIC50: −log10 of the molar value.

Assays:
[1] = Stability test in liver microsomes, mouse; assay type: in vitro ADME, CD-1 mice; settings: CD-1; mouse liver microsomes 0.5 mg/mL, 1.0 μM substrate, up to 60 min; read-out: Metabolic half-life in mouse liver microsome (T½, min)
[2] = Stability test in liver microsomes, rat; assay type: in vitro ADME, Sprague-Dawley rats; settings: Sprague-Dawley; rat liver microsomes 0.5 mg/mL, 1.0 μM substrate, up to 60 min; read-out: Metabolic half-life in rat liver microsome (T½, min)
[3] = Metabolic stability test in hepatocytes, mouse; assay type: in vitro ADME; settings: hepatocytes (suspension), Table 5: metabolic stability in hepatocytes, up to 90 min, read-out: Metabolic half-life in mouse liver microsome (T½, min)
Protocol: (§1) This experimental example was used to test the metabolic stability of the compounds in hepatocytes.
(§2) A suspension of hepatocytes was prepared at 0.5×10^6/mL with a pre-heated medium, then 198 μL of the pre-heated cell suspension was added to a 96-well plate. To each well of the 96-well plate, 2 μL of the test compound was added so that the final concentration was 1 μM, and 2 replicate wells were set. For the T=0 min sample, the compound was mixed well with the cells for 1 min, then […] was immediately added to 125 μL of a stop solution (an acetonitrile solution containing 200 ng/mL tolbutamide and 200 ng/mL labetalol) under an ice bath and mixed well. At the same time, all the plates were placed in an incubator at 37° C. with 5% CO2, with the shaker set at 600 rpm. The sample was mixed well at 15, 30, 60, and 90 min of incubation, respectively, and 25 μL of the sample was added to 125 μL of a stop solution (an acetonitrile solution containing 200 ng/mL tolbutamide and 200 ng/mL labetalol) under an ice bath, mixed well, and shaken at 500 rpm for 10 min. Subsequently, the plate was centrifuged for 20 min at 3220×g at 4° C. After the centrifugation was completed, 80 μL of the supernatant from each well was transferred to another 96-well plate containing 240 μL of ultrapure water. Subsequently, analysis was carried out using LC-MS/MS, and intrinsic clearance (CLint) and half-life (T½) were calculated.

[4] = Metabolic stability test in hepatocytes, rat; assay type: in vitro ADME; settings: hepatocytes (suspension), Table 5: metabolic stability in hepatocytes, up to 90 min, read-out: Metabolic half-life in rat liver microsome (T½, min)
Protocol: as §1, §2

CYP2D6 = target: T1, CYP2D6 (Homo sapiens, UniProt P10635); assay: Cytochrome oxidase P450 inhibition test, CYP2D6; assay type: in vitro ADME; settings: liver microsome incubation
T1 construct: from tissue; host or cells: liver microsome
T1 sequence (P10635 whole entry): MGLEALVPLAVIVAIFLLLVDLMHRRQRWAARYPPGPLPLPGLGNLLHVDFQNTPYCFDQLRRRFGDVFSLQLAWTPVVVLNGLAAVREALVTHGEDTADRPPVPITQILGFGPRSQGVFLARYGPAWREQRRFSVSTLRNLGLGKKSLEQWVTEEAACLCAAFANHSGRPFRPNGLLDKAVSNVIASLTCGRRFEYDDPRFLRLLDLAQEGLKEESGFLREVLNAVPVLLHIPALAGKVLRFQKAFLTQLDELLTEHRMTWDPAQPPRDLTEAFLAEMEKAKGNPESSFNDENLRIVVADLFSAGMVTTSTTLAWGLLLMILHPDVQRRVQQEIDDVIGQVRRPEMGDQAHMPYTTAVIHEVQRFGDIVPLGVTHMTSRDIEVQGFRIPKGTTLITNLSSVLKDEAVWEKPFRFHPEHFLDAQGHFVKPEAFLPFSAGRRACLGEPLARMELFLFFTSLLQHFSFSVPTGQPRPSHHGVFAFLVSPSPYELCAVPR
Protocol: (§3) 100 mM K-Buffer: 9.5 mL of stock solution A was mixed with 40.5 mL of stock solution B, the total volume was adjusted to […] with ultrapure water, and the buffer was titrated to pH 7.4 with KOH or H3PO4. • Starting material A (1 M potassium dihydrogen phosphate): 136.5 g of potassium dihydrogen phosphate in 1 L of water. • Stock B […] in 1 L of water. The test substance powder was prepared into a stock solution with a certain concentration using DMSO or other organic solvents, which was then further diluted using a proper organic solvent. The extracorporeal incubation system for CYP450 enzyme metabolism phenotype study was biochemical reaction of a prepared liver microsome, a redox coenzyme, and an enzyme-specific selective inhibitor in simulated physiological temperature and environment. The concentration of the parent drug or a metabolite thereof in the incubation solution was determined by LC-MS/MS.

CYP1A2 = target: T2, CYP1A2 (Homo sapiens, UniProt P05177); assay: Cytochrome oxidase P450 inhibition test, CYP1A2; assay type: in vitro ADME; settings: liver microsome incubation
T2 construct: from tissue; host or cells: liver microsome
T2 sequence (P05177 1-516): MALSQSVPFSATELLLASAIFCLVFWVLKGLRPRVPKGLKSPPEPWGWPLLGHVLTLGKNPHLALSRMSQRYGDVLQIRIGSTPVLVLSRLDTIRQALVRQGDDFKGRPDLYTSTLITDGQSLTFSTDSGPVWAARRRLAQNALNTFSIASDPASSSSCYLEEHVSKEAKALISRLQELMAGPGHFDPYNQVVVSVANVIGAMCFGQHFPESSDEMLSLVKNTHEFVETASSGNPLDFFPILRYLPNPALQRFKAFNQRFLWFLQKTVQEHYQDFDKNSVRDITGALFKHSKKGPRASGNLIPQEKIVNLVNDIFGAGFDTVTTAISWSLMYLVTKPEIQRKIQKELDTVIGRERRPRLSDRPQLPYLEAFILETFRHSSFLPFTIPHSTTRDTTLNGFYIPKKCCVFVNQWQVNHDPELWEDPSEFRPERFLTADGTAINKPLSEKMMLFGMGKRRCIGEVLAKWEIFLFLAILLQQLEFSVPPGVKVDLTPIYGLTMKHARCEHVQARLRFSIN
Protocol: as §3

CYP3A4 = target: T3, CYP3A4 (Homo sapiens, UniProt P08684); assay: Cytochrome oxidase P450 inhibition test, CYP3A4; assay type: in vitro ADME; settings: liver microsome incubation
T3 construct: from tissue; host or cells: liver microsome
T3 sequence (P08684 whole entry): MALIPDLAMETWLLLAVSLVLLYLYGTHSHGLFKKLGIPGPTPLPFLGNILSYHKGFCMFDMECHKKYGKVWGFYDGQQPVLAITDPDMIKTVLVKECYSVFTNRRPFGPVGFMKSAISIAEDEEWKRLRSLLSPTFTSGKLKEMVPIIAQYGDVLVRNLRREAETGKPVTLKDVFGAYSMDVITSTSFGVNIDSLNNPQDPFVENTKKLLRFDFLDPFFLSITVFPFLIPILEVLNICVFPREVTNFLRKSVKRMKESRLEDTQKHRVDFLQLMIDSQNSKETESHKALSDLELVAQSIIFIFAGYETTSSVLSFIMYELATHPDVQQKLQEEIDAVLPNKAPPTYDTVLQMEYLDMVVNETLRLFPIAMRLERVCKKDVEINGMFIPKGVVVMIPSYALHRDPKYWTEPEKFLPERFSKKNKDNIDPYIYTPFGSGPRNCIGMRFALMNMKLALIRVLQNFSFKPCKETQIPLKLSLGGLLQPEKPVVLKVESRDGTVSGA
Protocol: as §3

CYP2C9 = target: T4, CYP2C9 (Homo sapiens, UniProt P11712); assay: Cytochrome oxidase P450 inhibition test, CYP2C9; assay type: in vitro ADME; settings: liver microsome incubation
T4 construct: from tissue; host or cells: liver microsome
T4 sequence (P11712 whole entry): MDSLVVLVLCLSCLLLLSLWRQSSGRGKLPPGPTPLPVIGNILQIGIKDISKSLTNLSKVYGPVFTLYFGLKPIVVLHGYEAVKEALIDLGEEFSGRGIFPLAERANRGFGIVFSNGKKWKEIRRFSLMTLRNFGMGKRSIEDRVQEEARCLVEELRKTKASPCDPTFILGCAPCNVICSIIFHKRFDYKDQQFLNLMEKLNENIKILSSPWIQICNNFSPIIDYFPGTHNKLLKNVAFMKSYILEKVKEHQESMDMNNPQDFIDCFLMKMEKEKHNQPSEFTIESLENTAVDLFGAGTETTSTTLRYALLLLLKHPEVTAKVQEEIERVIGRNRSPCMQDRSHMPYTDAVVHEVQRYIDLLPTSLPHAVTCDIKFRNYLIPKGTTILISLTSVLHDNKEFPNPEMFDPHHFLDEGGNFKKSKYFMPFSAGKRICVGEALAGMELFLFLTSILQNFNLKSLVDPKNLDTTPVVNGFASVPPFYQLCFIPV
Protocol: as §3

[5] = system: Human colorectal adenocarcinoma cells HCT116-MTAP-KO; assay: Mouse xenograft tumor pharmacodynamic model, HCT116-MTAP-KO; assay type: in vivo
Protocol: In this example, the in vivo efficacy of the compound in a mouse xenograft tumor model after intragastric (PO) administration was tested.
Human colorectal adenocarcinoma cells HCT116-MTAP-KO were cultured in monolayer in vitro under the condition of McCoy's 5A medium containing 10% fetal bovine serum and 1% penicillin and streptomycin, and the culture was carried out at 37° C. with 5% CO2. The cells were digested with trypsin three times a week for passaging. When the saturation degree of the cells was 80-90%, the cells were collected, counted and inoculated. 0.1 mL (5×10^6 cells) of HCT116-MTAP-KO cells were subcutaneously inoculated on the right back of each mouse. On day 16 after inoculation of the cells, the mean tumor volume reached 154 mm^3. The mice were randomly grouped for administration and intragastrically dosed once daily. Changes in body weight and tumor volume were recorded. After a certain number of days of administration, the experiment was ended. Tumor volume changes and mouse body weight changes were counted and analyzed. AG270 (CAS: 2201056-66-6) was the positive control compound.

Q: For Cn1cc2c(n1)c(=O)n(-c1ccccc1Cl)c1nc(C(F)(F)F)ccc21 [Compound B182], which half-life at 1 μM [1] is on record?
A: Its half-life at 1 μM is 136 min.

Q: What about the half-life at 1 μM [2] of the same compound?
A: Its half-life at 1 μM is 20.4 min.

Q: Which half-life at 1 μM [1] does the source give for Cn1cc2c(n1)c(=O)n(-c1cccc(O)c1)c1nc(C(F)(F)F)ccc21 [Compound B148] here?
A: Its half-life at 1 μM is 120 min.

Q: And the half-life at 1 μM [2]?
A: The half-life at 1 μM was 142 min.

Q: What about the half-life at 1 μM [3] of the same compound?
A: Its half-life at 1 μM is 14.9 min.

Q: What about the half-life at 1 μM [4] of the same compound?
A: Its half-life at 1 μM is 50.9 min.

Q: With Cc1ncccc1-n1c(=O)c2nn(C)cc2c2ccc(C(F)(F)F)nc21 (single isomer, unassigned) [Compound B180] as the compound, how does the pIC50 (CYP2D6) read?
A: The pIC50 was < 5.00.

Q: And the pIC50 (CYP1A2)?
A: Its pIC50 is < 5.00.

Q: And the pIC50 (CYP3A4)?
A: The pIC50 was < 5.00.

Q: What about the half-life at 1 μM [3] of the same compound?
A: The half-life at 1 μM was 47.1 min.

Q: What about the pIC50 (CYP2C9) of the same compound?
A: Its pIC50 is < 5.00.

Q: And the half-life at 1 μM [4]?
A: Its half-life at 1 μM is 51.1 min.

Q: Which “Tumor growth inhibition percentage (TGI)” value ([5]; PO 1 mg/kg once a day, 15 days of administration) does the source give for Cn1cc2c(n1)c(=O)n(-c1cccc3[nH]ncc13)c1cc(Cl)c(F)cc21 [Compound B257] here?
A: The value was “once a day TGI = 77.29%”.

Q: What about the “Tumor growth inhibition percentage (TGI)” value ([5]; PO 1 mg/kg once a day, 28 days of administration) of the same compound?
A: Its value is “once a day TGI = 51.34%”.

Q: What about the “Tumor growth inhibition percentage (TGI)” value ([5]; PO 3 mg/kg once a day, 28 days of administration) of the same compound?
A: The value was “once a day TGI = 87.78%”.

Q: With Cn1cc2c(n1)c(=O)n(-c1cccnc1)c1cc(Cl)ccc21 [Compound B12] as the compound, how does the pIC50 (CYP2D6) read?
A: The pIC50 was < 5.00.

Q: What about the half-life at 1 μM [1] of the same compound?
A: Its half-life at 1 μM is > 145 min.

Q: What about the pIC50 (CYP1A2) of the same compound?
A: The pIC50 was < 5.00.

Q: What about the pIC50 (CYP3A4) of the same compound?
A: Its pIC50 is < 5.00.

Q: What about the half-life at 1 μM [2] of the same compound?
A: Its half-life at 1 μM is > 145 min.

Q: And the half-life at 1 μM [3]?
A: Its half-life at 1 μM is 68.8 min.

Q: And the pIC50 (CYP2C9)?
A: The pIC50 was < 5.00.

Q: What does the source list for Cn1cc2c(n1)c(=O)n(-c1cccnc1C1CC1)c1cc(Cl)c(F)cc21 [Compound B340]?
A: Tumor growth inhibition percentage (TGI) ([5]; PO 3 mg/kg once a day, 22 days of administration): once a day TGI = 48.04%; Tumor growth inhibition percentage (TGI) ([5]; PO 10 mg/kg once a day, 22 days of administration): once a day TGI = 61.99%; Tumor growth inhibition percentage (TGI) ([5]; PO 30 mg/kg once a day, 22 days of administration): once a day TGI = 72.55%; half-life at 1 μM [3]: 124 min; half-life at 1 μM [4]: 150 min

Q: With Cn1cc2c(n1)c(=O)n(-c1cccc3[nH]ncc13)c1cc(Cl)ccc21 [Compound B60] as the compound, how does the pIC50 (CYP2D6) read?
A: Its pIC50 is < 5.00.

Q: And the half-life at 1 μM [1]?
A: The half-life at 1 μM was > 145 min.

Q: And the pIC50 (CYP1A2)?
A: Its pIC50 is < 5.00.

Q: And the pIC50 (CYP3A4)?
A: The pIC50 was < 5.00.

Q: What about the half-life at 1 μM [2] of the same compound?
A: The half-life at 1 μM was > 145 min.

Q: And the pIC50 (CYP2C9)?
A: The pIC50 was < 5.00.

Q: With Cn1cc2c(n1)c(=O)n(-c1cccc3[nH]ncc13)c1nc(C(F)(F)F)ccc21 [Compound B181] as the compound, how does the pIC50 (CYP2D6) read?
A: Its pIC50 is < 4.52.

Q: And the half-life at 1 μM [1]?
A: The half-life at 1 μM was > 145 min.

Q: What about the pIC50 (CYP1A2) of the same compound?
A: The pIC50 was < 4.52.

Q: And the pIC50 (CYP3A4)?
A: Its pIC50 is < 4.52.

Q: What about the half-life at 1 μM [2] of the same compound?
A: The half-life at 1 μM was > 145 min.

Q: What about the half-life at 1 μM [3] of the same compound?
A: The half-life at 1 μM was 91.1 min.

Q: And the pIC50 (CYP2C9)?
A: The pIC50 was < 4.52.

Q: Which results are given for Cn1cc2c(n1)c(=O)n(-c1cccc3[nH]ncc13)c1cc(Cl)c(C#N)cc21 [Compound B258]?
A: Tumor growth inhibition percentage (TGI) ([5]; PO 3 mg/kg once a day, 15 days of administration): once a day TGI = 52.48%; Tumor growth inhibition percentage (TGI) ([5]; PO 10 mg/kg once a day, 15 days of administration): once a day TGI = 72.58%; Tumor growth inhibition percentage (TGI) ([5]; PO 30 mg/kg once a day, 15 days of administration): once a day TGI = 81.2%; Tumor growth inhibition percentage (TGI) ([5]; PO 100 mg/kg once a day, 15 days of administration): once a day TGI = 83.75%
